The values that follow come from ChEMBL document CHEMBL5532640, “Medicinal chemistry strategies targeting NLRP3 inflammasome pathway: A recent update from 2019 to mid-2023” (Eur J Med Chem, 2023).

For series [1], the target named is T1, NACHT, LRR and PYD domains-containing protein 3 (Mus musculus, UniProt Q8R4B8). As to the kind of experiment: Inhibition of NLRP3 inflammasome in mouse BMDMs assessed as reduction in IL-1beta activity preincubated with LPS for 4 hrs followed by compound addition for 30 mins prior to nigericin addition and measured after 1 hr by ELISA. In kind it is cell-based, BMDM.
T1 sequence (Q8R4B8 whole entry, the tested form may be a part): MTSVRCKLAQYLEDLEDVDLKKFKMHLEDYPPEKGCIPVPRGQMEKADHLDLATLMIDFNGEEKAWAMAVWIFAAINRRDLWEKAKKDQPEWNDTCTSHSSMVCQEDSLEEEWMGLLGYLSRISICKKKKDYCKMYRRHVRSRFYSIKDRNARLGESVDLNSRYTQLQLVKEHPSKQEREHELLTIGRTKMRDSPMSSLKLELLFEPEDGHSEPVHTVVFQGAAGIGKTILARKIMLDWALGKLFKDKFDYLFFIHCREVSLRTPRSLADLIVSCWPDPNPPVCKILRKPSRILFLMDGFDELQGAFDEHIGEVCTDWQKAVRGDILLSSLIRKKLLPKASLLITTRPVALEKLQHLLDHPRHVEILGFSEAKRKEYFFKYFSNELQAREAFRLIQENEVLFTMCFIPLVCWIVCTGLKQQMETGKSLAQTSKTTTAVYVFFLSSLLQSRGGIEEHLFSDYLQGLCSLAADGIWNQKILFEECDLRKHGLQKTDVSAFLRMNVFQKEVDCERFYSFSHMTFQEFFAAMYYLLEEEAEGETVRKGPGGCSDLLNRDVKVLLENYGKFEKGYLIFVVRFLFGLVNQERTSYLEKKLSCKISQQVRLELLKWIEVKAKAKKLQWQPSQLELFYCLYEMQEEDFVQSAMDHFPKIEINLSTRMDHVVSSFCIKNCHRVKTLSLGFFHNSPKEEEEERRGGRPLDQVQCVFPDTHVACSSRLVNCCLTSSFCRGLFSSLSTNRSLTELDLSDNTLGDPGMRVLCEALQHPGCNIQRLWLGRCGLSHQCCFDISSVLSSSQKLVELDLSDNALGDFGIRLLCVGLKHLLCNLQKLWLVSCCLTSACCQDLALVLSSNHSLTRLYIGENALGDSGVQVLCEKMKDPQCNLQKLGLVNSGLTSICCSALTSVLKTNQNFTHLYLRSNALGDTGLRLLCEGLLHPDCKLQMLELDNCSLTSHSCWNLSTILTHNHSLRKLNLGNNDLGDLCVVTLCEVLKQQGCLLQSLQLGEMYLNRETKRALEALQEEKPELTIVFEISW

A short description of series [2]: Inhibition of LPS/nigericin induced LDH release in mouse J774.A1 cells. It counts as functional, cell-based.
The target in series [3] is T1, NACHT, LRR and PYD domains-containing protein 3. The experiment in a line: Inhibition of NLRP3 inflammasome in mouse J774.A1 cells assessed as decrease in LPS/nigericin induced IL-1beta level preincubated with LPS for 4 hrs followed by compound addition for 1 hr in presence nigericin by ELISA. It counts as cell-based.
Series [4] has the same target. The experiment in a line: Inhibition of NLRP3 in mouse BMDMs assessed as reduction in LPS/ATP-induced IL-1beta release preincubated for 30 mins in presence of LPS followed by ATP addition and measured after 1 hr by ELISA. In kind it is cell-based, BMDM.
The target in series [5] is T2, NACHT, LRR and PYD domains-containing protein 3 (Homo sapiens, UniProt Q96P20). As to the kind of experiment: Inhibition of NLRP3 in human THP-1 cells assessed as reduction in LPS/ATP induced IL-1beta release at 10 uM preincubated with LPS for 4 hrs followed by compound addition for 1 hr prior to ATP stimulation for 1.5 hrs by ELISA relative to control. It counts as cell-based. The conditions noted are these: time 2.5 hrs.
T2 sequence (Q96P20 whole entry, the tested form may be a part): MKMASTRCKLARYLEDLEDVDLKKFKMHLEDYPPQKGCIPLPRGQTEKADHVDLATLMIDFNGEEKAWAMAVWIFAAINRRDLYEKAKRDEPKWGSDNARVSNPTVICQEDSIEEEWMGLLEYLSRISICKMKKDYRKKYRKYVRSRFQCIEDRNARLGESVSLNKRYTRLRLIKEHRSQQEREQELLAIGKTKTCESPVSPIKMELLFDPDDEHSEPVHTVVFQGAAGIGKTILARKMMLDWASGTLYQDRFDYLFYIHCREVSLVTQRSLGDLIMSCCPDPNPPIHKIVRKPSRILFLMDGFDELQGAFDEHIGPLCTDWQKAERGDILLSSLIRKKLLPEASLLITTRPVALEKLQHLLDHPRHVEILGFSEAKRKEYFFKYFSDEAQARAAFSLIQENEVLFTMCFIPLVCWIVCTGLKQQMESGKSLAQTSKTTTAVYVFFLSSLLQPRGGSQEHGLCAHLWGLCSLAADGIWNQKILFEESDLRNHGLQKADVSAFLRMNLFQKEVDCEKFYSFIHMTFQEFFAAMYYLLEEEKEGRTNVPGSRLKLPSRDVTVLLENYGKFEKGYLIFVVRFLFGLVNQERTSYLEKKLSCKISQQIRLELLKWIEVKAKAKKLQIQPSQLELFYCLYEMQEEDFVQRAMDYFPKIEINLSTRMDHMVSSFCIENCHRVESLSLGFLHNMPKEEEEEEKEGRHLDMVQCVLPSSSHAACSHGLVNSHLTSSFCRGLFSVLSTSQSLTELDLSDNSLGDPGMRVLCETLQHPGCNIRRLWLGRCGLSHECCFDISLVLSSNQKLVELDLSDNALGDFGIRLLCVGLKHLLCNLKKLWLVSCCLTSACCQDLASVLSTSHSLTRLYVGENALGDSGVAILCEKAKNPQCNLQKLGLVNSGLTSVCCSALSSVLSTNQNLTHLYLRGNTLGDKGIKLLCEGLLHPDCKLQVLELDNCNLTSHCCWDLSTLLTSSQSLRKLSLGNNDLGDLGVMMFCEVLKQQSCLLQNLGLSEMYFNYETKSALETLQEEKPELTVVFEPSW

Series [6] deals with T1, NACHT, LRR and PYD domains-containing protein 3. As to the kind of experiment: Inhibition of NLRP3 in LPS/ATP induced mouse J774.A1 cells. It counts as cell-based.
Series [7] in a line: Cytotoxicity against mouse J774.A1 cells. The conditions noted are these: read-out: TC50 (the source's name). It counts as toxicity, cell-based.
Series [8] has as its target T2, NACHT, LRR and PYD domains-containing protein 3. The experiment in a line: Inhibition of NLRP3 inflammasome in human MDM cells assessed as reduction in LPS/nigericin induced IL-1beta secretion […] prior to nigericin addition and measured after 5 hrs by ELISA. In kind it is cell-based.
Series [9] in a line: Cmax in human at 1000 mg per day, po administered for 8 consecutive days. To be noted: in vivo. It counts as ADME, organism-based.
The nature of series [10]: Inhibition of porcine whole blood NLRP3 assessed as reduction in LPS/ATP induced IL-1beta secretion preincubated for 3 hrs in presence of LPS followed by ATP addition and measured after 1 hr by immunoassay. To be noted: Sus scrofa.
Series [11] is described as follows: Stability in human liver microsomes assessed as compound remaining after 60 mins. In kind it is ADME, Microsome. To be noted: read-out: Stability.
The nature of series [12]: Half life in C57BL/6 mouse at 20 mg/kg, po. In kind it is ADME, organism-based. The conditions noted are these: in vivo.
Series [13] can be described thus: Stability in mouse liver microsomes assessed as compound remaining after 60 mins. In kind it is ADME, Microsome. The conditions noted are these: read-out: Stability.
In series [14] the target is T1, NACHT, LRR and PYD domains-containing protein 3. The experiment in a line: Inhibition of NLRP3 in mouse J774.A1 cells assessed as reduction in LPS/ATP induced IL-1beta secretion. In kind it is cell-based.
For series [15] the target is unchanged. As to the kind of experiment: Covalent inhibition of NLRP3 in mouse BMDMs assessed as reduction in LPS/nigericin induced IL-1beta secretion pretreated with LPS for 3 hrs followed by compound addition for 30 mins prior to nigericin addition and measured after 30 mins by ELISA. It counts as cell-based, BMDM.
Series [16] in a line: Solubility of the compound at pH 1.5. In kind it is physicochemical. The conditions noted are these: buffer.
The target in series [17] is T2, NACHT, LRR and PYD domains-containing protein 3. As to the kind of experiment: Inhibition of NLRP3 in LPS/ATP induced human THP1 cells. In kind it is cell-based, THP-1.

≈ marks a conversion by molar mass, not a printed value.

As for `COc1c(O)cc2c(c1C)C(=O)C=C1[C@@]2(C)CC[C@@]2(C)[C@@H]3C[C@@H](C)C(=O)[C@@H](O)[C@]3(C)CC[C@]12C`, the half-maximal inhibitory concentration (IC50) in series [1] was 1150 nM.

`CCO[C@H]1C[C@H]2C(C)(C)CCC[C@]2(C)C2=C1C=C(C(C)C)C(=O)C2=O` showed an IC50 in series [2] of 230 nM.

Take `CC1(C)OC(=O)C=C[C@@]2(C)[C@H]1CC(=O)[C@@]1(C)C3=CC[C@@H](C4=CC(=O)O[C@@H]4O)[C@]3(C)CC[C@@H]12`: the IC50 in [3] was determined as 3200 nM.

Consider `CC(C)n1ccc(S(=O)(=O)NC(=O)Nc2c3c(cc4c2CCC4)CCC3)n1` [INZOMELID], for which the IC50 in series [4] came to 16 nM.

On to `O=C(CCc1ccccc1Cl)NCCn1c(=O)[nH]c2ccccc21`, for which the inhibition in series [5] was determined as 20.3%.

Turning to `O=C(/C=C/S(=O)(=O)c1ccccc1Cl)OCCc1ccccc1`, the 50% inhibitory concentration (IC50) in series [6] came out at 920 nM. In addition, the CC50 in [7] came to 41800 nM.

Regarding `CS(=O)(=O)CCC#N`, the IC50 in series [8] was 1000 nM. The molecule also had a Cmax in series [9] of 41400 ng/mL.

With `NS(=O)(=O)c1ccc(CCNC(=O)/C=C/S(=O)(=O)c2ccccc2Cl)cc1`, the half-inhibitory concentration (IC50) in [6] worked out at 1830 nM. Further, the CC50 in series [7] was 27500 nM.

As to `O=C(CCc1ccccc1Cl)N1CCC(n2c(=O)[nH]c3ccccc32)CC1`, in [5], the inhibition amounted to 10.3%.

`CCN1CCC(S(=O)(=O)NC(=O)Nc2c3c(cc4c2CCC4)CCC3)CC1` [SELNOFLAST]: in series [10], the IC50 was determined as 350 nM.

In the case of `CC1(C)OC(=O)C=C[C@]2(C)[C@H]3CC[C@@]4(C)[C@H](C5=CC(=O)NC5=O)C[C@H]5O[C@]54[C@]3(C)OC(=O)C[C@@H]12`, the IC50 in [3] was found to be 3200 nM.

`C=C(Cc1ccccc1Cl)C(=O)N1CCC(n2c(=O)[nH]c3ccccc32)CC1`: the inhibition in series [5] amounted to 14.4%.

`Cc1ccc(S(=O)(=O)/C=C/C#N)cc1`: the CC50 in series [7] is 6400 nM.

Consider `CCO[C@@H]1C[C@H]2C(C)(C)CCC[C@]2(C)C2=C1C=C(C(C)C)C(=O)C2=O`, for which, in [2], the IC50 came out at 230 nM.

With `CC(C)(O)c1coc(S(=O)(=O)NC(=O)Nc2c3c(cc4c2CCC4)CCC3)c1`, the remaining at 1 h in series [11] and in [13] was greater than 70% each time. The same molecule showed a half-life in series [12] of 3.27 h.

Turning to `CC(=O)O[C@@H]1C[C@H]2C(C)(C)OC(=O)C=C[C@]2(C)[C@H]2CC[C@]3(C)C(=CC[C@H]3C3=CC(=O)O[C@@H]3O)[C@@]21C`, the IC50 in series [3] was 3200 nM.

With `CCOCCOc1ccc(/C=C/c2cc(OC)cc(OC)c2/C=C/[N+](=O)[O-])cc1`, in series [14], the IC50 was 2410 nM.

Turning to `CC1=C(O)C(=O)C=C2C1=CC=C1[C@@]2(C)[C@@H](Br)C[C@@]2(C)[C@@H]3C[C@@H](C)C(=O)C[C@]3(C)CC[C@]12C`, in series [1], the IC50 was 190 nM.

For the molecule `O=C(O)Cn1c(=O)n(C(=O)CCc2ccccc2Cl)c2ccccc21`, in [5], the inhibition is 21.1%.

As to `CO[C@@H]1C2=C(C(=O)C(=O)C(C(C)C)=C2)[C@@]2(C)CCCC(C)(C)[C@@H]2[C@H]1O`, half-maximal inhibition in series [2] (IC50) was put at 230 nM.

`O=C(CBr)NCc1ccc(C(F)(F)F)cc1`: in [15], the IC50 amounted to 183 nM.

In series [2], `CC(=O)O[C@H]1C=C2C=C(C(C)C)C(=O)C(O)=C2[C@@]2(C)CCCC(C)(C)[C@H]12` returned an IC50 of 230 nM.

Take `N#C/N=C(\NCc1ccccc1)NC1CCN(C(=O)CCc2ccccc2Cl)CC1`: in series [5], the inhibition was found to be 25.2%.

In series [16], `CN[C@@H]1COc2c(S(=O)(=O)NC(=O)Nc3c4c(cc5c3CCC5)CCC4)cnn2C1` had a solubility of 5760 µg/mL (≈ 13.3 mM).

Consider `CC(=O)O[C@H]1[C@@H](OC(C)=O)[C@@]2(C)C3=CC[C@@H](C4=CC(=O)O[C@@H]4O)[C@]3(C)CC[C@@H]2[C@@]2(C)C=CC(=O)OC(C)(C)[C@H]12`, for which the IC50 in [3] stood at 3200 nM.

In turn, `CC(C)C1=CC2=C[C@H](O)[C@H]3C(C)(C)CCC[C@]3(C)[C@@]2(O)C(=O)C1=O` showed an IC50 in series [2] of 230 nM.

In turn, `C=C1C(=O)[C@]23[C@H](O)[C@H]1CC[C@H]2[C@@]12CO[C@]3(O)[C@@H](O)[C@@H]1C(C)(C)CC[C@@H]2O` [ORIDONIN] came in with an IC50 in series [17] of 5180 nM.

Consider `CC1(C)CCC[C@@]2(C)C1=C(O)C(=O)c1cc(C(C)(C)O)c(O)c(O)c12`, for which it took 230 nM to reach half-maximal inhibition in [2] (IC50).
